According to patent publication US20220408703A1, “IMAGING INDIVIDUAL HIPPOCAMPAL SEIZURES AND THE LONG-TERM IMPACT OF REPEATED SEIZURES” (The Board of Trustees of the Leland Stanford Junior …, priority 2019, published 2022):

Test system: optogenetically induced ventral hippocampal seizures in rats
Conditions: same animals awake and under dexmedetomidine sedation
Text: (A,B) Ventral hippocampal LFP recordings from the same animal and seizures induced when awake and under sedation. Red arrow indicates large amplitude spike onset, and insets i-iii) are magnified components of those seizures. Blue bar indicates time of optogenetic stimulation (40 Hz with 7.5 ms pulses) (C) Another set of electrophysiological recordings from a different animal in the awake and sedated state. […] Each line represents a single animal.
The afterdischarge threshold was first evaluated for each individual animal by gradually increasing stimulation intensity in a step-wise manner to drive electrographic seizures in the absence of behavioral seizures as assessed using the Racine scale. Starting with a 10 s train of 40 Hz stimulation with a pulse width of 7.5 ms at 1 mW, the power was increased 1 mW at a time with an interstimulus interval (ISI) of 1 min up to a maximum of 20 mW. If no afterdischarges were observed, the duration was increased by 2.5 s and power was reset to 1 mW.
Simultaneous LFP-ofMRI Data Acquisition to assess ventral hippocampal connectivity. To assess ventral hippocampal connectivity, CAMKIIa cells in ventral hippocampus were stimulated at 10 Hz using optogenetic stimulation and assessed using simultaneous LFP-fMRI. Data acquisition was performed using the 7T horizontal-bore system (Bruker BioSpec 70/30) at the Stanford Center for Innovation in In-Vivo Imaging (SCi3). […] A single bolus of Feraheme (15 mg/kg, i.v.) was used for cerebral blood volume (CBV) weighted imaging for the enhanced contrast to noise ratio (Mandeville et al., 1998) and microvascular sensitivity (Zhao et al., 2006) that this technique offers in comparison to BOLD fMRI. fMRI acquisition was carried out approximately 15 min post contrast agent injection using a 4-shot segmented spiral readout with the following acquisition parameters: TR=0.75 ms, TE=9 ms, flip angle=30, field-of-view=32×32 mm, matrix=70×70, slice thickness=0.6 mm, number of slices=30, number of repetitions=130, number of dummy scans=4. […]

## Cc1cccc([C@H](C)c2cnc[nH]2)c1C [dexmedetomidine]
40 Hz, 7.5 ms pulses, FIG. 10D
  proportion of stimulations resulting in afterdischarges, awake vs sedated: No differences
FIG. 10E
  large amplitude spike onset, awake vs sedated: No differences
FIG. 10F
  afterdischarge duration, sedated vs awake: did not result in shorter afterdischarges
